What all share (test): growth of human tumour cells (NCI), 48 h
Assay [1] relates to SF-539 CNS.
The test system of assay [2] is HCC-2998 colon.
Assay [3] relates to NCI/ADR-RES ovarian.
Assay [4] deals with PC-3 prostate.
The subject of assay [5] is SK-MEL-28 melanoma.
Assay [6] concerns MCF7 breast.
The subject of assay [7] is SW-620 colon.
Assay [8] deals with NCI-H460 lung.
Assay [9] concerns HCT-15 colon.
Assay [10] deals with SF-268 CNS.

Each structure is given as a SMILES string. Where “and” joins values, the source holds several entries; their conditions need not be identical. Identical values can stand only once.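 Results reflect a 48-hour exposure of cells in 96-well plates to compound at five concentrations. GI50 is the concentration that inhibits growth by half. TGI marks complete inhibition of growth.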

Turning to `COc1ccc2c(c1)C=C1CSCC3=Cc4cc(OC)ccc4OC13O2`, the GI50 in [1] was 0.254 µM; in assay [2] it was 1.07 µM; in [3], 0.308 µM; in assay [4], 0.36 µM; in [5] it was over 28.2 µM; in assay [6] it was 0.313 µM. Moreover, the GI50 in assay [7] is 0.373 µM; in [8] it was 0.387 µM; in assay [9], 0.359 µM; in assay [10], 2.86 µM. Further, the TGI was 0.816 µM in assay [1]; over 100 µM in [2]; over 100 µM in assay [3]; over 100 µM in assay [4]; over 100 µM in assay [5]; over 100 µM in [6]. In addition, the TGI in [7], in [8], in assay [9] and in [10] was over 100 µM each time.
Consider `NCCSC(C[N+](=O)[O-])c1ccccc1Cl` (stereo not drawn), for which the GI50 in assay [1] was 2.42 µM; in assay [2], 2.1 µM; in assay [3] it was 9.85 µM; in assay [4], 4.19 µM; in assay [5], 2.08 µM; in assay [6], 1.13 µM. The GI50 in assay [7] is 1.82 µM; in assay [8] it was 11.8 µM; in assay [9], 2.21 µM; in assay [10], 2.79 µM. The TGI in assay [1] is 5.49 µM; in assay [2], 4.03 µM; in [3], over 23.4 µM; in assay [4] it was over 32.7 µM; in assay [5] it was 4.6 µM; in assay [6], 3.2 µM. Moreover, the TGI in assay [7] came to 4.05 µM; in assay [8], 32 µM; in [9] it was 5.97 µM; in assay [10], 8.53 µM.
For `Oc1ccc(O)c2c1C1(Cl)C(Cl)=C(Cl)C2(Cl)C1(Cl)Cl`, the GI50 in assay [1] is 4.38 µM; in assay [2], 8.7 µM; in [3], 3.03 µM; in assay [4] it was 3.14 µM; in [5], 10.9 µM; in assay [6] it was 6.4 µM. Moreover, the GI50 in [7] was 4.89 µM; in assay [8], 2.86 µM; in assay [9], 4.15 µM; in [10] it was 3.31 µM. For the same compound, the TGI was 18.7 µM in assay [1]; 21.3 µM in assay [2]; 9.53 µM in assay [3]; 16.4 µM in assay [4]; 81 µM in assay [5]; over 100 µM in [6]. The TGI in assay [7] stood at 16.7 µM; in assay [8], 8.94 µM; in [9], 26.1 µM; in assay [10] it was 15.5 µM.
For `Nc1ccccc1C#C/C=C\C#Cc1ccccc1F`, the GI50 in assay [1] is 3.82 µM; in assay [2], 2.25 µM; in [3], 2.47 µM; in assay [4], 6.8 µM; in [5] it was 18 µM; in assay [6], 3.2 µM. In addition, the GI50 in assay [7] is 16 µM; in [8], 6.17 µM; in assay [9] it was 5.17 µM; in assay [10] it was 4.23 µM. The TGI is 15.7 µM in [1]; 5.26 µM in assay [2]; 6.73 µM in assay [3]; over 100 µM in assay [4]; 75.1 µM in [5]; over 100 µM in assay [6]. The TGI was over 100 µM in assay [7], 21.2 µM in assay [8], 19.7 µM in assay [9] and 23.3 µM in assay [10].
Consider `Oc1ccc(Cn2c(-c3ccc(O)cc3)nc3ccccc32)cc1`, for which the TGI in assay [1], in assay [2], in [3], in [4], in assay [5] and in assay [6] was over 100 µM in each case. For the same compound, the TGI in [7], in assay [8], in assay [9] and in assay [10] was over 100 µM each time.
In the case of `CC(C)=CCc1cc(C2COc3cc4c(c(O)c3C2=O)C=CC(C)(C)O4)c(O)cc1O` (stereo not drawn), the TGI in [1] came out at 34.3 µM; in [2], 32.7 µM; in [3], 79.4 µM; in assay [4], 24.9 µM; in assay [5] it was 50.4 µM; in assay [6], 33.5 µM. The TGI is 57.3 µM in assay [7], 27.4 µM in assay [8], 26.9 µM in assay [9] and 30.5 µM in [10].
Take `Nc1nc(Cl)nc2c1ncn2[C@@H]1O[C@H](COS(N)(=O)=O)[C@@H](O)[C@H]1O`: the GI50 was 0.0217 µM in [1]; 0.0191 µM and 0.0226 µM in [2]; 0.0121 µM and 0.0196 µM in [3]; 0.0209 µM and 0.0258 µM in [4]; 0.0201 µM and 0.0208 µM in assay [5]; 0.024 µM and 0.0293 µM in [6]. Further, the GI50 is 0.0256 µM and 0.0312 µM in assay [7]; 0.0306 µM and 0.0305 µM in assay [8]; 0.0272 µM and 0.0313 µM in assay [9]; 0.0234 µM and 0.0269 µM in [10]. In addition, the TGI in assay [1] was 0.0563 µM and 0.0533 µM; in assay [2] it was 0.0382 µM and 0.0498 µM; in [3], 0.054 µM and 0.145 µM; in [4], 0.0737 µM and 0.08 µM; in assay [5], 0.05 µM and 0.0511 µM; in assay [8], 0.104 µM and 0.108 µM. The TGI in [9] was 0.0881 µM and 0.168 µM; in assay [10] it was 0.0768 µM and 0.088 µM.
Regarding `CCc1nc(N)nc(N)c1C#CC(C)c1cc(-c2ccnc(C)c2)c2oc(C)nc2c1` (stereo not drawn), the GI50 in assay [1] is under 0.01 µM; in [2], 0.0206 µM; in [3], 0.0146 µM; in assay [4], under 0.01 µM; in assay [5], 0.106 µM; in assay [6], 0.0118 µM. Also, the GI50 in [7], in [8], in [9] and in assay [10] was under 0.01 µM in each case. Also, the TGI was 2.4 µM in assay [1]; 5.95 µM in assay [2]; 10.1 µM in assay [3]; 12.1 µM in assay [4]; 14.3 µM in assay [5]; 11.9 µM in [6]. In addition, the TGI in assay [7] is 13.2 µM; in [8], 4.26 µM; in assay [9] it was 11.3 µM; in assay [10], 6.02 µM.

Values taken from PubChem BioAssay (NCI).
